One test deals with human Cav2.2 (Homo sapiens, UniProt Q00975). Briefly: Assessment of calcium channel activity using FLIPR (Ca2+ influx in IMR32 cells).
Chain of human Cav2.2 (Q00975 whole entry): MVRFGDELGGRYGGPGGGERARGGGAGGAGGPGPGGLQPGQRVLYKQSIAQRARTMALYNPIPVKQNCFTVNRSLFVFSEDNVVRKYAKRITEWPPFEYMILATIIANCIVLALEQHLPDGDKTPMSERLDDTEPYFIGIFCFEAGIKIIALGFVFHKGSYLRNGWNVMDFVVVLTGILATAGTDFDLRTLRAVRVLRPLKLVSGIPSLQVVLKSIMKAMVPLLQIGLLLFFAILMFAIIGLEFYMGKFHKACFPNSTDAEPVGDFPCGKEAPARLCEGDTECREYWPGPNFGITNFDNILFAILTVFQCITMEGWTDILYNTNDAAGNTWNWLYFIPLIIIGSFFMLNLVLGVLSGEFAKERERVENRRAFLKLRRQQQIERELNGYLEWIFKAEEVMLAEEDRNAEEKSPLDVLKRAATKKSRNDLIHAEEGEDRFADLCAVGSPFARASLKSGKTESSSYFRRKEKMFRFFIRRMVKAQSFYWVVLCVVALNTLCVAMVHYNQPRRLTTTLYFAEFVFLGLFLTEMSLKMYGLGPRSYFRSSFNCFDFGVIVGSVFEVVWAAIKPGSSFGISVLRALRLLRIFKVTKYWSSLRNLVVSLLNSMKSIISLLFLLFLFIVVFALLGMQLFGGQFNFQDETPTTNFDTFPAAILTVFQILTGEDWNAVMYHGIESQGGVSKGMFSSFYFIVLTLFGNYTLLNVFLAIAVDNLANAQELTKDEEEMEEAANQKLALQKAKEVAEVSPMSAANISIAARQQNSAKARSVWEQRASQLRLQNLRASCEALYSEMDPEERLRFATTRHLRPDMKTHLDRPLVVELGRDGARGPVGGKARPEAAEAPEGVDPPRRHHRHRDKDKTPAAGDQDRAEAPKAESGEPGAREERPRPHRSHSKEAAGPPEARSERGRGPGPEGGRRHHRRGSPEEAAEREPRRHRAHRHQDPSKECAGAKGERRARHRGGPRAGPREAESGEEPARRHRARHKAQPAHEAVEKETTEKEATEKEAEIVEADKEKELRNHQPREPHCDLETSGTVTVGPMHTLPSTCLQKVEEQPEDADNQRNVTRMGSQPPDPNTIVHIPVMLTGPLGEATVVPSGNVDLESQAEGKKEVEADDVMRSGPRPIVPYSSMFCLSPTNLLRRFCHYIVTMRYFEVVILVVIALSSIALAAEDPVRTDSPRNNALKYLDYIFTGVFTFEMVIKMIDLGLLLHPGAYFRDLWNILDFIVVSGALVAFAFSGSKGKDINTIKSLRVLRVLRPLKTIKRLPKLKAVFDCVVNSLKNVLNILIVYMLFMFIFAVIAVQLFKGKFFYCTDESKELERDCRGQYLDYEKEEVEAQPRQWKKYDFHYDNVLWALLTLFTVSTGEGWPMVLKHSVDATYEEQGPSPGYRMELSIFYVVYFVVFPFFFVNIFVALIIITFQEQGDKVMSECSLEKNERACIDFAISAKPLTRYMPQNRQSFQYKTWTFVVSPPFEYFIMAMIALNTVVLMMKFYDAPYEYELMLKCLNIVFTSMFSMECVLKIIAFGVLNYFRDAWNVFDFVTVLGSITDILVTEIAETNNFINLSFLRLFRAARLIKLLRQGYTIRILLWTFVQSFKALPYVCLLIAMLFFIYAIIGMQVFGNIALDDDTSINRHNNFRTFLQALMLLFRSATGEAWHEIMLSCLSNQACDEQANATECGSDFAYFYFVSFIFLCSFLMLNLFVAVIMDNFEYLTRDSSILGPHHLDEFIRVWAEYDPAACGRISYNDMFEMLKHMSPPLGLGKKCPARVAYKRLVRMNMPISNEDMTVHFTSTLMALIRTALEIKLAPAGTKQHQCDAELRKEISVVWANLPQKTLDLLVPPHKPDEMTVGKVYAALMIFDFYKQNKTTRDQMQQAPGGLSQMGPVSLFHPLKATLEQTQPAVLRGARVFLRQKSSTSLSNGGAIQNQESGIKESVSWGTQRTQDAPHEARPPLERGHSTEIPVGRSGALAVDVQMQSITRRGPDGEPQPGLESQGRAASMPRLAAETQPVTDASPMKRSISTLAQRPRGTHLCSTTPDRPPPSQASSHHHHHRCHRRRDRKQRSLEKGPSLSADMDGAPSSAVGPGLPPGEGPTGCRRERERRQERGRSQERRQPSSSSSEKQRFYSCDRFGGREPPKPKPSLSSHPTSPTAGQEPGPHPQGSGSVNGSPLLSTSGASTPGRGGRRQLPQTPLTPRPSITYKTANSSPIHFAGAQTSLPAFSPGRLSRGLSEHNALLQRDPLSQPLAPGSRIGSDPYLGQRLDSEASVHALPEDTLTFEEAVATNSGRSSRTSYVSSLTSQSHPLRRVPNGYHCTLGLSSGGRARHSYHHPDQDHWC
Chain of human Cav2.2 (P54289 25-956 partner limits assumed): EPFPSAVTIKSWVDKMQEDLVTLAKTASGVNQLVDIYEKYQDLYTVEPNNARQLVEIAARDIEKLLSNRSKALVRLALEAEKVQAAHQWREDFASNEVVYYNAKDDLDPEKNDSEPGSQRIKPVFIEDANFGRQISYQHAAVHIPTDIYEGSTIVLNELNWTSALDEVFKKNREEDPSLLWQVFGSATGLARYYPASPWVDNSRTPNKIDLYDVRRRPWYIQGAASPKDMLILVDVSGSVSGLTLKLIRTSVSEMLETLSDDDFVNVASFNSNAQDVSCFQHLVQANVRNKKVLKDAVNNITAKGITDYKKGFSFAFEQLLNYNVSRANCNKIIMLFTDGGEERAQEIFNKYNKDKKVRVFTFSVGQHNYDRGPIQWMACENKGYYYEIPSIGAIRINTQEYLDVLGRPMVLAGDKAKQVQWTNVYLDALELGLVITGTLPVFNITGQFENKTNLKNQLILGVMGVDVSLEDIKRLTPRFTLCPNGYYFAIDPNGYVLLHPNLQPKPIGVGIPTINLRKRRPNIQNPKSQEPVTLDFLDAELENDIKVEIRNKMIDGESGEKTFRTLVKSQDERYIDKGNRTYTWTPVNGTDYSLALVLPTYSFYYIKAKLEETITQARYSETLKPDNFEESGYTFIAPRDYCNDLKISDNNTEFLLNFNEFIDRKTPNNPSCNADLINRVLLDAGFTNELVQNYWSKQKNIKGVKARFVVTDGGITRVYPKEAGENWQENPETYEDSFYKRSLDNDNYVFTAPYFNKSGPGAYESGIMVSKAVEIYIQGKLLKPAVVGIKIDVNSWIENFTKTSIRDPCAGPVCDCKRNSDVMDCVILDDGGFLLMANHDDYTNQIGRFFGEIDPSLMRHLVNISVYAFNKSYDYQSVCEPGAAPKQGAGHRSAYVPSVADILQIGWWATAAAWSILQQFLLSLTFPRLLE
Chain of human Cav2.2 (P54289 957-1103 partner limits assumed): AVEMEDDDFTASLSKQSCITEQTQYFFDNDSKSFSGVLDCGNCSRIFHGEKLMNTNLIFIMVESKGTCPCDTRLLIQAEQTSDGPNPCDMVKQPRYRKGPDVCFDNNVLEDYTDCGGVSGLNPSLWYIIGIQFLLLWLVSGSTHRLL
Chain of human Cav2.2 (P54284 whole entry partner): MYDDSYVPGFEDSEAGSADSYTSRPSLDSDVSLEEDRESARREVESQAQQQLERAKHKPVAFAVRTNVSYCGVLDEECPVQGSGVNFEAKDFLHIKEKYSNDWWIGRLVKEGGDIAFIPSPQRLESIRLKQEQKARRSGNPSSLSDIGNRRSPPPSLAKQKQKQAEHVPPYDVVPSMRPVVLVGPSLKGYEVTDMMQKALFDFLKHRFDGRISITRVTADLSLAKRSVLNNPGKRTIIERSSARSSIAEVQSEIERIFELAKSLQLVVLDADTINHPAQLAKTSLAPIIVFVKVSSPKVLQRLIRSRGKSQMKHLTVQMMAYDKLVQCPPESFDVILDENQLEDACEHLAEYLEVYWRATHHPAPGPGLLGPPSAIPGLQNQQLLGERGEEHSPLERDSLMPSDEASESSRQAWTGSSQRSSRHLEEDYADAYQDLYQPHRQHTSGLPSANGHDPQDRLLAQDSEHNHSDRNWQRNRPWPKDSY
Settings: not given
It is filed as cell-based. The method in brief:
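IC50 values derive from nonlinear sigmoidal fitting of percent inhibition, relative to inhibitor-free activity, of Ca2+ influx read by FLIPR. Cells were IMR32 human neuroblastoma, plated at 1−1.2×10^5 per well and grown 48 h at 37 °C.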
As to `O=C(N[C@H]1CC[C@@H]2CN(c3cccc(C(F)(F)F)n3)C[C@@H]21)c1cc2ccccc2[nH]1` [Example 570, N-{(3aR,4S,6aS)-2-[6-(trifluoromethyl)pyridin-2-yl]octahydrocyclopenta[c]pyrrol-4-yl}-1H-indole-2-carboxamide], the half-maximal inhibitory concentration (IC50) was found to be 0.61 µM.
Still for that read-out and setting: next, `FC(F)(F)c1cccc(N2C[C@H]3CC[C@H](NCc4cccc5nsnc45)[C@H]3C2)n1` [Example 728, (3aR,4S,6aS)-N-(2,1,3-benzothiadiazol-4-ylmethyl)-2-[6-(trifluoromethyl)pyridin-2-yl]octahydrocyclopenta[c]pyrrol-4-amine]: 0.48 µM.
Still for that read-out and setting: next, `CC(C)(C)[C@H](N)C(=O)N[C@H]1CC[C@@H]2CN(Cc3ccccc3)C[C@@H]21` [Example 357, N^1-[(3aR,4S,6aS)-2-benzyloctahydrocyclopenta[c]pyrrol-4-yl]-3-methyl-L-valinamide]: over 30 µM; `O=C(N[C@H]1CC[C@@H]2CN(c3cccc(C(F)(F)F)n3)C[C@@H]21)c1cc2cc(F)ccc2[nH]1` [Example 697, 5-fluoro-N-{(3aR,4S,6aS)-2-[6-(trifluoromethyl)pyridin-2-yl]octahydrocyclopenta[c]pyrrol-4-yl}-1H-indole-2-carboxamide]: 2.24 µM; `COc1ccc(-c2n[nH]cc2CN[C@H]2CC[C@@H]3CN(c4cccc(C(F)(F)F)n4)C[C@@H]32)cc1` [Example 681, (3aR,4S,6aS)-N-{[3-(4-methoxyphenyl)-1H-pyrazol-4-yl]methyl}-2-[6-(trifluoromethyl)pyridin-2-yl]octahydrocyclopenta[c]pyrrol-4-amine]: 0.98 µM.
Same read-out and setting: next, `CC(C)(C)NC(=O)N[C@H]1CC[C@@H]2CN(c3cccc(C(F)(F)F)n3)C[C@@H]21` [Example 711, 1-tert-butyl-3-{(3aR,4S,6aS)-2-[6-(trifluoromethyl)pyridin-2-yl]octahydrocyclopenta[c]pyrrol-4-yl}urea]: 1.38 µM.
As to `N[C@@H](CC1CCCCC1)C(=O)N[C@H]1CC[C@@H]2CN(S(=O)(=O)c3ccc(C(F)(F)F)cc3)C[C@@H]21` [Example 426, 3-cyclohexyl-N^1-((3aR,4S,6aS)-2-{[4-(trifluoromethyl)phenyl]sulfonyl}octahydrocyclopenta[c]pyrrol-4-yl)-L-alaninamide], the 50% inhibitory concentration (IC50) came to 1.79 µM.
On the same count and under the same terms, next, `CN[C@H](C(=O)N[C@H]1CC[C@@H]2CN(c3cccc(C(F)(F)F)n3)C[C@@H]21)C(C)C` [Example 764, N^2-methyl-N-{(3aR,4S,6aS)-2-[6-(trifluoromethyl)pyridin-2-yl]octahydrocyclopenta[c]pyrrol-4-yl}-L-valinamide]: 0.95 µM.

Still in this test, the particulars now being: read-out: IC50 (μM) or percent inhibition (* indicates 3 minute incubation, otherwise 60 minute); IC50; 60 minute pre-incubation with compound; IMR32 cells, 80 mM KCl depolarization.
Turning to `O=C(CC(c1ccc(F)cc1)c1ccc(F)cc1)N[C@H]1CC[C@H]2CN(Cc3cccc(C(F)(F)F)c3)C[C@H]21` (relative stereo) [Example 133, 3,3-bis(4-fluorophenyl)-N-{(3aS*,4S*,6aR*)-2-[3-(trifluoromethyl)benzyl]octahydrocyclopenta[c]pyrrol-4-yl}propanamide], the IC50 was determined as 0.69 µM.
Turning to `CC(C)C[C@H](NS(=O)(=O)C1CC1)C(=O)N[C@H]1CC[C@H]2CN(Cc3cccc(C(F)(F)F)c3)C[C@H]21` [Example 174, N^2-(cyclopropylsulfonyl)-N^1-{(3aS,4S,6aR)-2-[3-(trifluoromethyl)benzyl]octahydrocyclopenta[c]pyrrol-4-yl}-L-leucinamide], the half-inhibitory concentration (IC50) turned out to be 1.04 µM.
The same measure, in the same setting: with “N^2-isopropyl-4-methyl-N^1-{(3aR,4S,6aS)-2-[2-(methylsulfonyl)pyrimidin-5-yl]octahydrocyclopenta[c]pyrrol-4-yl}-L-leucinamide [Example 493]” the figure was 5.08 µM.
Consider `CCC[C@H](NC)C(=O)N[C@H]1CC[C@@H]2CN(C(=O)c3cccc(C(F)(F)F)c3)C[C@@H]21` [Example 554, N^2-methyl-N^1-{(3aR,4S,6aS)-2-[3-(trifluoromethyl)benzoyl]octahydrocyclopenta[c]pyrrol-4-yl}-L-norvalinamide], for which the IC50 came out at 10.3 µM.

The values above are taken from patent US8691865B2 (AbbVie Inc., priority 2008, dated 2014).
